The values below come from US20140158233A1, “AEROSOL DELIVERY TO A MICROFLUIDIC DEVICE” (PRESIDENT AND FELLOWS OF HARVARD COLLEGE, priority 2011, published 2014).

This data set deals with human alveolar epithelial cells (A549). The experiment in a line: Aerosol delivery of a model agent to cells in a lung-on-a-chip (cell uptake, time-course fluorescence images). Format: cell-based. The conditions noted are these: 50 micromolar fluorescein sodium in isotonic PBS, nebulized droplets, flow ~20 mL/hr into top channel; confluent A549 monolayer at air interface; images 0-10 min (FIGS. 14A-14D). The text has this: In accordance with some embodiments described herein, an agent can be aerosolized and directed to a microfluidic channel for delivery of the agent to a cell. In some embodiments, the microfluidic channel can be present in a lung-on-a-chip device as described earlier. By way of example only, to evaluate efficacy of aerosol delivery to and/or deposition on a cell using one or more embodiments of the aerosol delivery device described herein, a monolayer of human alveolar epithelial cells (A549) was grown to confluence on the top side of a porous membrane of the lung-on-a-chip, for example, the one described in the International Patent Application WO 2010/009307, the content of which is incorporated herein by reference. In some embodiments, no cells were seeded on the bottom side of the membrane. […] In some embodiments, at least the top channel inlet port 1310 of the lung-on-a-chip 1300 can be modified to include an inertial impactor as described herein. […] The microchannel 142 (in fluid communication with the chamber 150) and the porous membrane 160 can be directly or indirectly connected to the top channel 1320 and the porous membrane 1340 of the lung-on-a-chip 1300. […]

As for `O=C1OC2(c3ccc(O)cc3Oc3cc(O)ccc32)c2ccccc21` [fluorescein, fluorescein sodium], the “cell uptake of aerosolized fluorescein after deposition on the cells” value is on record as “taken up by the cells”.
